We go through 16 molecules from patent US20230105212A1, “BIPHENYL DERIVATIVE INHIBITOR, PREPARATION METHOD THEREFOR AND USE THEREOF” (SHANGHAI HANSOH BIOMEDICAL CO., LTD., priority 2020, published 2023).

Usually ΔTm stands for the change in melting temperature against a reference sample.

The target in one assay is T1, human PD-1/PD-L1 binding (Homo sapiens, UniProt Q9NZQ7).
T1 construct: PD-L1-His protein (19 to 238 amino acids) (Abcam #ab167713); purchased Abcam (PD-L1-His); R&D (PD-1-Fc) ab167713; 1086-PD
T1 sequence (Q9NZQ7 19-238): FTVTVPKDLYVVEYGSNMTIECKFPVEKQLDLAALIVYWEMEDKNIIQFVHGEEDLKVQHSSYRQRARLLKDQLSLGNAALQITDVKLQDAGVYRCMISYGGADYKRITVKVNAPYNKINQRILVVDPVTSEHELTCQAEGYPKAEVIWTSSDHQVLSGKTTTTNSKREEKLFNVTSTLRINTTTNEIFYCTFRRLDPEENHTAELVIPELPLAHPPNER
Put plainly: Inhibition of human PD-1/PD-L1 binding (TR-FRET/HTRF). The settings on record: TR-FRET, PD-L1-His and PD-1-Fc; read-out: PD-1/PD-L1 binding IC50. In short, it runs like this:
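PD-L1-His (aa 19–238, diluted to 10 nM) and PD-1-Fc (aa 25–167, diluted to 20 nM) incubated with compounds (10 μM or 1 μM top, 3-fold, 11 doses) 60 min at room temperature, then anti-6HIS Eu cryptate/anti-human IgG-XL665 added for 3 h RT or overnight 4 °C. HTRF 665/620 nm ratio gave inhibition and IC50.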
Background: TR-FRET usually uses a lanthanide donor and a delayed reading to cut background.

Assay [1] addresses T2, PD-L1 protein on the surface of MC38-hPDL1 tumor cells (Homo sapiens, UniProt Q9NZQ7).
T2 construct: expressed in transfected cells; host or cells: MC38-hPDL1 (mouse colon cancer cells)
The assay can be described thus: Induction of endocytosis of PD-L1 on the surface of tumor cells (flow cytometry). As to conditions: 16 hours incubation; for Emax: MC38-hPDL1 cells, read-out: MC38 maximum endocytosis rate; for IC50: inducing endocytosis of PD-L1, MC38-hPDL1 cells, read-out: MC38 IC50. The format is cell-based. In short, it runs like this: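 MC38-hPDL1 mouse colon cancer cells overexpressing human PD-L1 were exposed to compound dilutions for 16 h at 37 °C. Surface PD-L1 was then stained with PE anti-human CD274 for 30 min at room temperature and measured by flow cytometry. Endocytosis rate versus concentration was fitted by nonlinear regression to give IC50.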
(In general: In flow cytometry, cells or beads pass a laser one at a time.)

The next assay addresses T3, human PD-L1 protein (Homo sapiens, UniProt Q9NZQ7).
T3 construct: purchased Acro Biosystems PD1-H5229
Put plainly: Thermal shift: melting temperature of PD-L1 protein. The class given is binding. The settings on record: read-out: ΔTm (° C.). In short, it runs like this:
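Human PD-L1 at 2 μM final was tested in […], 150 mM NaCl with SYPRO Orange, heated 25→95 °C at 0.03 °C/s in a PCR melt-curve run. Tm was taken per treatment; ΔTm is the shift relative to DMSO vehicle.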

Setting [2] is: compound 10 μM, PD-L1 protein 2 μM, Tm minus DMSO vehicle control.

Like-named read-outs stand apart in the source and are kept apart here.

T3 sequence (Q9NZQ7 19-238 limits assumed): as the sequence (Q9NZQ7 19-238) above
T2 sequence (Q9NZQ7 19-290): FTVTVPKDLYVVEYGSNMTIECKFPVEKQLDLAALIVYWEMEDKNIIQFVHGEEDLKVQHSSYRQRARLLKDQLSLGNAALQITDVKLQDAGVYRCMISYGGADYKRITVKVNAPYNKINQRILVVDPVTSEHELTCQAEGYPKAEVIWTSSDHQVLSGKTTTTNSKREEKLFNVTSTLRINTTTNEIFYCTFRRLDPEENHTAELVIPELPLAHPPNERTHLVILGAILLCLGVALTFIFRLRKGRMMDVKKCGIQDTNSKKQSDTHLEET

As for `COc1nc(-c2cccc(-c3cccc(NC(=O)c4nc5c(n4C)CCN(C)C5)c3Cl)c2Cl)ccc1CN1CC[C@H]1CO` [Embodiment 172, (S)—N-(2,2′-Dichloro-3′-(5-((2-(hydroxymethyl)azetidin-1-yl)methyl)-6-methoxypyridin-2-yl)-[1,1′-biphenyl]-3-yl)-1,5-dimethyl-4,5,6,7-tetrahydro-1H-imidazo[4,5-c]pyridine-2-carboxamide], at human PD-1/PD-L1 binding, the IC50 is 6.3 nM. Also, the Emax in assay [1] is 94%. Further, the thermal shift (ΔTm) at 10 µM on human PD-L1 protein worked out at 13.9 °C.

For the molecule `COc1nc(-c2cccc(-c3cccc(NC(=O)c4nc5c(n4C)CCN(C)C5)c3Cl)c2Cl)ccc1CNCC(=O)O` [Embodiment 138, ((6-(2,2′-Dichloro-3′-(1,5-dimethyl-4,5,6,7-tetrahydro-1H-imidazo[4,5-c]pyridine-2-carboxamido)-[1,1′-biphenyl]-3-yl)-2-methoxypyridin-3-yl)methyl)glycine], the figures for the IC50 (on human PD-1/PD-L1 binding; in assay [1]) were 0.8 nM and 4.5 nM, respectively. In assay [1], the Emax came to 97%. The ΔTm at 10 µM at human PD-L1 protein (setting [2]) amounted to 14 °C.

In the case of `COc1nc(-c2cccc(-c3cccc(NC(=O)c4nc5c(n4C)CCN(C)C5)c3Cl)c2Cl)ccc1CN1CCN(C(=O)CC#N)CC1` [Embodiment 198, N-(2,2′-Dichloro-3′-(5-((4-(2-cyanoacetyl)piperazin-1-yl)methyl)-6-methoxypyridin-2-yl)-[1,1′-biphenyl]-3-yl)-1,5-dimethyl-4,5,6,7-tetrahydro-1H-imidazo[4,5-c]pyridine-2-carboxamide], on human PD-1/PD-L1 binding, the IC50 came to 9.6 nM. The Emax in assay [1] was 94%. The ΔTm at 10 µM on human PD-L1 protein (setting [2]) turned out to be 12 °C.

As for `COc1nc(-c2cccc(-c3cccc(NC(=O)c4nc5c(n4C)CCN(C)C5)c3Cl)c2Cl)ccc1CN1C[C@@H]2C[C@H]1CN2C(C)=O` [Embodiment 205, N-(3′-(5-(((1S,4S)-5-Acetyl-2,5-diazabicyclo[2.2.1]heptan-2-yl)methyl)-6-methoxypyridin-2-yl)-2,2′-dichloro-[1,1′-biphenyl]-3-yl)-1,5-dimethyl-4,5,6,7-tetrahydro-1H-imidazo[4,5-c]pyridine-2-carboxamide], the IC50 at human PD-1/PD-L1 binding came out at 8.8 nM. In addition, in assay [1], the Emax came to 96%. Further, at human PD-L1 protein (setting [2]), the shift in melting temperature (ΔTm) at 10 µM turned out to be 13.3 °C.

Regarding `CCn1c(C(=O)Nc2cccc(-c3cccc(-c4ccc(CN5CC(C(=O)O)C5)c(OC)n4)c3Cl)c2Cl)nc2c1CCN(C)C2` [Embodiment 240, 1-((6-(2,2′-Dichloro-3′-(1-ethyl-5-methyl-4,5,6,7-tetrahydro-1H-imidazo[4,5-c]pyridine-2-carboxamido)-[1,1′-biphenyl]-3-yl)-2-methoxypyridin-3-yl)methyl)azetidine-3-carboxylic Acid], the IC50 at human PD-1/PD-L1 binding came to 2.8 nM. In addition, the Emax in assay [1] came out at 97%. Also, the ΔTm at 10 µM at human PD-L1 protein (setting [2]) was found to be 13 °C.

With `COc1nc(-c2cccc(-c3cccc(NC(=O)c4nc5c(n4C)CCN(C)C5)c3Cl)c2Cl)ccc1CN1CC(OC(C)=O)C1` [Embodiment 122, 1-((6-(2,2′-Dichloro-3′-(1,5-dimethyl-4,5,6,7-tetrahydro-1H-imidazo[4,5-c]pyridine-2-carboxamido)-[1,1′-biphenyl]-3-yl)-2-methoxypyridin-3-yl)methyl)azetidin-3-yl acetate], the IC50 on human PD-1/PD-L1 binding turned out to be 3.5 nM. Also, in assay [1], the Emax turned out to be 97% and the IC50 stood at 0.4 nM. Besides, on human PD-L1 protein (setting [2]), the shift in melting temperature (ΔTm) at 10 µM was 14.8 °C.

For `COc1cc(-c2cccc(-c3cccc(NC(=O)c4nc5c(n4C)CCN(C)C5)c3Cl)c2Cl)ccc1CNCCO` [Embodiment 157, N-(2,2′-Dichloro-4″-(((2-hydroxyethyl)amino)methyl)-3″-methoxy-[1,1′:3′,1″-terphenyl]-3-yl)-1,5-dimethyl-4,5,6,7-tetrahydro-1H-imidazo[4,5-c]pyridine-2-carboxamide], on human PD-1/PD-L1 binding, the IC50 turned out to be 4 nM. Also, in assay [1], the Emax came to 95% and the IC50 came out at 1.5 nM. Further, on human PD-L1 protein (setting [2]), the ΔTm at 10 µM is 11.2 °C.

Take `COc1nc(-c2cccc(-c3cccc(NC(=O)c4nc5c(n4C4CC4)CCN(C)C5)c3Cl)c2Cl)ccc1CN1CC(CO)C1` [Embodiment 245, 1-Cyclopropyl-N-(2,2′-dichloro-3′-(5-((3-(hydroxymethyl)azetidin-1-yl)methyl)-6-methoxypyridin-2-yl)-[1,1′-biphenyl]-3-yl)-5-methyl-4,5,6,7-tetrahydro-1H-imidazo[4,5-c]pyridine-2-carboxamide]: the IC50 on human PD-1/PD-L1 binding worked out at 4.4 nM. In addition, the Emax in assay [1] came to 93%. Moreover, the ΔTm at 10 µM at human PD-L1 protein (setting [2]) turned out to be 10.2 °C.

Take `COc1nc(-c2cccc(-c3cccc(NC(=O)c4nc5c(n4C)CCN(C)C5)c3Cl)c2Cl)ccc1CN1C2CC1CN(C(C)=O)C2` [Embodiment 209, N-(3′-(5-((3-Acetyl-3,6-diazabicyclo[3.1.1]heptan-6-yl)methyl)-6-methoxypyridin-2-yl)-2,2′-dichloro-[1,1′-biphenyl]-3-yl)-1,5-dimethyl-4,5,6,7-tetrahydro-1H-imidazo[4,5-c]pyridine-2-carboxamide]: on human PD-1/PD-L1 binding, the IC50 turned out to be 7.1 nM. Moreover, the Emax in assay [1] was 90%. Also, the ΔTm at 10 µM on human PD-L1 protein (setting [2]) is 10.7 °C.

As to `COc1nc(-c2cccc(-c3cccc(NC(=O)c4nc5c(n4C)CCN(C)C5)c3Cl)c2Cl)ccc1CNC1CCOCC1C(=O)O` (centres unmarked) [Embodiment 214, 4-(((6-(2,2′-Dichloro-3′-(1,5-dimethyl-4,5,6,7-tetrahydro-1H-imidazo[4,5-c]pyridin-2-carboxamido)-[1,1′-biphenyl]-3-yl)-2-methoxypyridin-3-yl)methyl)amino)tetrahydro-2H-pyran-3-carboxylic Acid], the IC50 at human PD-1/PD-L1 binding turned out to be 5.3 nM. Besides, in assay [1], the Emax came out at 93%. Further, on human PD-L1 protein (setting [2]), the ΔTm at 10 µM stood at 10.2 °C.

For the molecule `CCn1c(C(=O)Nc2cccc(-c3cccc(-c4ccc(CN5CC(CO)C5)c(OC)n4)c3Cl)c2Cl)nc2c1CCN(C)C2` [Embodiment 239, N-(2,2′-Dichloro-3′-(5-((3-(hydroxymethyl)azetidin-1-yl)methyl)-6-methoxypyridin-2-yl)-[1,1′-biphenyl]-3-yl)-1-ethyl-5-methyl-4,5,6,7-tetrahydro-1H-imidazo[4,5-c]pyridine-2-carboxamide], the IC50 on human PD-1/PD-L1 binding turned out to be 4.9 nM. Moreover, in assay [1], the Emax was 95%. Besides, the thermal shift (ΔTm) at 10 µM on human PD-L1 protein (setting [2]) is 11.9 °C.

For `COc1nc(-c2cccc(-c3cccc(NC(=O)c4nc5c(n4C)CCN(C)C5)c3Cl)c2Cl)ncc1CNCCO` [Embodiment 229, N-(2,2′-Dichloro-3′-(5-(((2-hydroxyethyl)amino)methyl)-4-methoxypyrimidin-2-yl)-[1,1′-biphenyl]-3-yl)-1,5-dimethyl-4,5,6,7-tetrahydro-1H-imidazo[4,5-c]pyridine-2-carboxamide], the IC50 at human PD-1/PD-L1 binding was 3.2 nM. For the same molecule, the Emax in assay [1] amounted to 95%. The ΔTm at 10 µM on human PD-L1 protein (setting [2]) worked out at 12 °C.

`COc1nc(-c2cccc(-c3cccc(NC(=O)c4nc5c(n4C)CCN(C)C5)c3Cl)c2Cl)ccc1CN1CCCC[C@H]1C(=O)O` [Embodiment 230, (S)-1-((6-(2,2′-Dichloro-3′-(1,5-dimethyl-4,5,6,7-tetrahydro-1H-imidazo[4,5-c]pyridine-2-carboxamido)-[1,1′-biphenyl]-3-yl)-2-methoxypyridin-3-yl)methyl)piperidine-2-carboxylic Acid]: on human PD-1/PD-L1 binding, the IC50 was found to be 1.8 nM. Besides, the Emax in assay [1] amounted to 95%. The ΔTm at 10 µM at human PD-L1 protein (setting [2]) worked out at 11.3 °C.

Take `COc1cc(-c2cccc(-c3cccc(NC(=O)c4nc5c(n4C)CCN(C)C5)c3Cl)c2Cl)ccc1CNC[C@@H](C)O` [Embodiment 158, (R)—N-(2,2′-Dichloro-4″-(((2-hydroxypropyl)amino)methyl)-3″-methoxy-[1,1′:3′,1″-terphenyl]-3-yl)-1,5-dimethyl-4,5,6,7-tetrahydro-1H-imidazo[4,5-c]pyridine-2-carboxamide]: the IC50 at human PD-1/PD-L1 binding came to 6.4 nM. Further, in assay [1], the Emax worked out at 95% and the IC50 was determined as 1.7 nM. Also, the ΔTm at 10 µM at human PD-L1 protein (setting [2]) came out at 10.3 °C.

As to `CCn1c(C(=O)Nc2cccc(-c3cccc(-c4ccc(CN[C@H]5CCOC[C@@H]5O)c(OC)n4)c3Cl)c2Cl)nc2c1CCN(C)C2` (relative stereo) [Embodiment 235, N-(2,2′-Dichloro-3′-(5-(((trans-3-hydroxytetrahydro-2H-pyran-4-yl)amino)methyl)-6-methoxypyridin-2-yl)-[1,1′-biphenyl]-3-yl)-1-ethyl-5-methyl-4,5,6,7-tetrahydro-1H-imidazo[4,5-c]pyridine-2-carboxamide], the IC50 on human PD-1/PD-L1 binding amounted to 6.4 nM. Further, the Emax in assay [1] is 93%. The ΔTm at 10 µM on human PD-L1 protein (setting [2]) worked out at 11.3 °C.

As to `COc1nc(-c2cccc(-c3cccc(NC(=O)c4nc5c(n4C)CCN(C)C5)c3Cl)c2Cl)ccc1CN1CC(O)C1` [Embodiment 129, N-(2,2′-Dichloro-3′-(5-((3-hydroxyazetidin-1-yl)methyl)-6-methoxypyridin-2-yl)-[1,1′-biphenyl]-3-yl)-1,5-dimethyl-4,5,6,7-tetrahydro-1H-imidazo[4,5-c]pyridine-2-carboxamide], the results for the IC50 (on human PD-1/PD-L1 binding; in assay [1]) were 2.9 nM and 1 nM, respectively. Besides, in assay [1], the Emax was determined as 95%. Moreover, at human PD-L1 protein, the ΔTm at 10 µM stood at 13.9 °C.
